Measurements reported in patent US20090176983A1, “Tenofovir Disoproxil Hemi-Fumaric Acid Co-Crystal” (ULTIMORPHIX TECHNOLOGIES B.V., priority 2007, published 2009).

How the values were obtained:
[1] = Dynamic Vapour Sorption (DVS) moisture sorption isotherm; format: physicochemical; details: for total uptake of water vapours: DVS, 25° C., relative humidity 0% to 95% in steps of 5%, 1 h per step
Method: Moisture sorption isotherms were measured using a DVS-1 system of Surface Measurement Systems (London, UK). Differences in moisture uptake of various forms of a solid material indicate differences in the relative stabilities of the various solid forms for increasing relative humidity. The experiment was carried out at a constant temperature of 25° C.
A sample of about 11.5 mg of form TDFA 2:1 was spread in the DVS pan. The sample was dried at 0% RH for 7 h. Subsequently the relative humidity of the chamber was increased in steps of 5% units from 0% to 95% in order to monitor the sorption of water vapours. The samples remained in each of the steps for 1 h. Following, desorption was monitored by decreasing the relative humidity to 0% in steps of 5% units and remaining at each step for 1 h. The total uptake of water vapours was about 0.8%, which is line with the industry standard for hygroscopicity. In a similar DVS experiment using the starting material as purchased, the total vapour intake was about 4%, which is undesirable in formulation and requires additional measures.

[2] = Comparative pharmacokinetic study of TDFA 2:1 and ULT 1 (plasma tenofovir by LC-MS-MS); format: in vivo, Male wistar rats; details: rats, one capsule of approximately 15 mg by oral gavage; compared with fumarate salt form ULT 1; FIG. 5
Excerpt: The plasma samples were further worked up for analysis by LC-MS-MS for their content of tenofovir. […] The concentration of tenofovir (the active metabolite of tenofovir DF) was quantified in each sample by means of LC-MS-MS against a calibration curve. From the PK data it is concluded that the hemifumarate co-crystal of tenofovir disoproxil, TDFA 2:1 is bioequivalent to the fumarate salt of tenofovir disoproxil form ULT 1, which is a commercially available fumarate salt of tenofovir disoproxil.

[3] = summary statement, versus Gilead 1

Molecule | total uptake of water vapours [1] | changes in the structure by XRPD at the end of the DVS experiment ([1]; solid material after the sorption-desorption cycle, FIG. 4) | hygroscopicity compared with known crystalline form of tenofovir DF (Gilead 1) [1, 3] | stability compared with known crystalline form of tenofovir DF (Gilead 1) [1, 3] | bioequivalence from PK data (concentration of tenofovir in plasma) [2]
CC(C)OC(=O)OCOP(=O)(CO[C@H](C)Cn1cnc2c(N)ncnc21)OCOC(=O)OC(C)C.O=C(O)/C=C/C(=O)O [starting material, 9-[(R)-2-[[bis[[(isopropoxycarbonyl)oxy]methoxy]phosphinyl]-methoxy]propyl]adenine fumarate (1:1), reference compound] | about 4% |  |  |  | 
co-crystal of tenofovir disoproxil and fumaric acid in a 2:1 molar ratio [TDFA 2:1] | about 0.8% | no any changes in the structure | less hygroscopic | more stable | bioequivalent
